This is an account of results in PMC3794980, “Identification of Conserved and HLA Promiscuous DENV3 T-Cell Epitopes” (PLoS Neglected Tropical Diseases, 2013).

What all share (experiment): biochemical
Format in all cases: binding

For assay [1], the target named is DRB1*0101 (Homo sapiens, UniProt P01903+P01911, A100R/D57E/F55L/F60I/F76Y/I96L/L162R/M171V/P40L/Q125E/R42F/V115G/Y59C).
Assay [2] deals with DRB1*0301 (Homo sapiens, UniProt P01903+P01911, A100K/A102G/A103R/A169T/F55Y/I96L/K41T/L162R/M171V/P40S/Q125H/Q178H/Q39Y/R42S/S66N/T106N/T262R/W38E/Y61H).
Chain of DRB1*0301 (P01903 26-254, other chains not shown): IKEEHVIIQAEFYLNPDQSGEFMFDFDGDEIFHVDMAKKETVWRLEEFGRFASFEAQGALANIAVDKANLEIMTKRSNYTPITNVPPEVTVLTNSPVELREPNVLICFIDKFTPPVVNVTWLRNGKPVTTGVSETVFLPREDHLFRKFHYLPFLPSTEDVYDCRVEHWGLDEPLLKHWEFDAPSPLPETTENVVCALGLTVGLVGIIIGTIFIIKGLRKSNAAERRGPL
In assay [3] the target is DRB1*0401 (Homo sapiens, UniProt P01903+P01911, A100K/A169T/F76Y/I96L/K127E/L162R/M171V/N62H/P40V/Q125Y/R42H/S133A/S149N/S66Y/V115G/V209L/W38E).
Assay [4] addresses DRB1*0404 (Homo sapiens, UniProt P01903+P01911, A100R/A169T/F76Y/I96L/K127E/L162R/M171V/N62H/P40V/Q125Y/R42H/S133A/S149N/S66Y/V209L/W38E).
Assay [5] addresses DRB1*0405 (Homo sapiens, UniProt P01903+P01911, A100R/A169T/D86S/F76Y/I96L/K127E/L162R/M171V/N62H/P40V/Q125Y/R42H/S133A/S149N/S66Y/V115G/V209L/W38E).
For assay [6], the target named is DRB1*0701 (Homo sapiens, UniProt P01903+P01911, A100R/A102G/A103Q/D57E/D86V/E43K/F76Y/K127E/L162R/M171V/P40G/Q125H/Q99D/R33Q/R42Y/R54Q/S133A/S66F/T210M/V115G/Y107V/Y59L/Y89S).
In assay [7] the target is DRB1*0901 (Homo sapiens, UniProt P01903+P01911, A100R/A103E/D57H/D86V/F55Y/F60I/F76Y/I96F/K127E/L162R/M171V/P40D/Q125H/Q99R/R33Q/R42F/S133A/S66N/T210M/V115G/W38K/Y107V/Y59G/Y89S).
The target of assay [8] is DRB1*1101 (Homo sapiens, UniProt P01903+P01911, A100R/A169T/A87E/I96F/K41T/L162R/M171V/P40S/Q125H/Q178H/Q39Y/Q99D/R42S/S66Y/T262R/V115G/W38E).
Chain of DRB1*1101 (P01903 26-254, other chains not shown): as above
Assay [9] has as its target DRB1*1302 (Homo sapiens, UniProt P01903+P01911, A100E/A169T/K41T/L162R/M171V/P40S/Q125H/Q178H/Q39Y/Q99D/R42S/S66N/T262R/V115G/W38E/Y61H).
Assay [10] addresses DRB1*1501 (Homo sapiens, UniProt P01903+P01911).
In assay [11] the target is DRB3*0101 (Homo sapiens, UniProt P01903+P79483).
Assay [12] concerns the target DRB5*0101 (Homo sapiens, UniProt P01903+Q30154).
Assay [13] addresses DRB1*0802 (Homo sapiens, UniProt P01903+P01911, A100R/A103L/A169T/F76Y/H45Y/I96F/K41T/L162R/M171V/P40S/Q125H/Q178H/Q39Y/Q99D/R218S/R42G/S66Y/V115G/W38E).
In assay [14] the target is DRB4*0101 (Homo sapiens, UniProt P01903+P13762, G164S).
[15] abbreviates: competitive inhibition of radiolabeled standard peptide, '-' distinct from ND, read-out: Binding Affinity (nM) DRB1*0901.
The mark [16] stands for this setting: competitive inhibition of radiolabeled standard peptide, '-' distinct from ND, read-out: Binding Affinity (nM) DRB1*1302.

The structures appear in SMILES notation. Where two headings read alike, the source gives them in different places.

Chain of DRB1*1302 (P01903 26-254 limits assumed, other chains not shown): as the sequence (P01903 26-254, other chains not shown) above

For `CC[C@H](C)[C@H](NC(=O)[C@H](CCCCN)NC(=O)[C@H](C)NC(=O)[C@H](CCCCN)NC(=O)CNC(=O)[C@H](Cc1c[nH]c2ccccc12)NC(=O)[C@@H](N)[C@@H](C)O)C(=O)N[C@H](C(=O)N[C@H](C(=O)N[C@@H](C)C(=O)N[C@@H](CCC(=O)O)C(=O)N[C@H](C(=O)N[C@@H](CCC(N)=O)C(=O)N[C@@H](CC(N)=O)C(=O)N[C@@H](CO)C(=O)O)[C@@H](C)O)[C@@H](C)O)C(C)C` [NS1 117-131], the IC50 came out at 1090 nM in assay [1]; 4160 nM in assay [2]; 28 nM in assay [3]; 695 nM in [4]; 285 nM in assay [5]; 6690 nM in assay [6]. In addition, the IC50 is 2630 nM in assay [7] (setting [15]); 18200 nM in assay [8]; 1240 nM in [9] (setting [16]); 3750 nM in assay [10]; 534 nM in assay [11]; 3930 nM in assay [12].
Turning to `CC[C@H](C)[C@H](NC(=O)[C@H](CCC(=O)O)NC(=O)CNC(=O)[C@@H](NC(=O)[C@@H](NC(=O)[C@@H](NC(=O)[C@H](CCC(N)=O)NC(=O)[C@H](Cc1ccccc1)NC(=O)[C@@H](NC(=O)CNC(=O)[C@@H]1CCCN1C(=O)[C@H](CCSC)NC(=O)[C@@H](NC(=O)[C@H](CCC(N)=O)NC(=O)[C@@H](N)Cc1ccccc1)[C@@H](C)O)[C@@H](C)O)[C@@H](C)O)[C@@H](C)O)[C@@H](C)O)C(=O)O` [NS3 109-123], the IC50 in assay [1] is 148 nM; in assay [2], 16400 nM; in [3], 222 nM; in assay [4], 961 nM; in assay [6] it was 1020 nM; in [13] it was 557 nM. The IC50 was 1850 nM in assay [7]; 3860 nM in assay [8]; 7040 nM in assay [9]; 2180 nM in assay [10]; 4140 nM in assay [11]; 2750 nM in [12].
For the molecule `CC[C@H](C)[C@H](NC(=O)[C@@H]1CCCN1C(=O)[C@H](CC(C)C)NC(=O)CNC(=O)[C@@H](N)CCCCN)C(=O)N[C@@H](CCCNC(=N)N)C(=O)N[C@@H](Cc1ccc(O)cc1)C(=O)N[C@@H](CCC(N)=O)C(=O)N[C@H](C(=O)N[C@H](C(=O)N[C@@H](C)C(=O)N[C@H](C(=O)N[C@@H](CCCCN)C(=O)N[C@@H](CO)C(=O)N[C@@H](CCC(=O)O)C(=O)O)[C@@H](C)O)[C@@H](C)O)[C@@H](C)O` [NS3 237-251], the IC50 came to 110 nM in [1]; 1820 nM in assay [2]; 13 nM in assay [3]; 310 nM in assay [4]; 2990 nM in assay [6]; 36 nM in assay [13]. The IC50 in assay [7] (setting [15]) came to 928 nM; in assay [8], 807 nM; in assay [9] (setting [16]), 2620 nM; in [10] it was 638 nM; in assay [11], 19000 nM; in [14], 5.5 nM. For the same molecule, in assay [12], the IC50 came out at 13 nM.
For the molecule `CC[C@H](C)[C@H](NC(=O)[C@H](C)NC(=O)[C@H](C)NC(=O)[C@H](C)NC(=O)[C@@H](N)CCC(=O)O)C(=O)N[C@@H](Cc1ccccc1)C(=O)N[C@@H](CCSC)C(=O)N[C@H](C(=O)N[C@@H](C)C(=O)N[C@H](C(=O)N1CCC[C@H]1C(=O)N1CCC[C@H]1C(=O)NCC(=O)N[C@H](C(=O)N[C@@H](C)C(=O)O)[C@@H](C)O)[C@@H](C)O)[C@@H](C)O` [NS3 309-323], the IC50 in assay [1] turned out to be 27 nM; in assay [3] it was 2.4 nM; in assay [4] it was 350 nM; in assay [5] it was 32 nM; in [6] it was 48 nM; in assay [13], 31 nM. Moreover, the IC50 in assay [7] was found to be 129 nM; in assay [8] it was 93 nM; in assay [9], 2640 nM; in [10], 363 nM; in assay [11], 11700 nM; in assay [14], 9.2 nM. Besides, the IC50 in assay [12] was determined as 2520 nM.
For the molecule `CC[C@H](C)[C@H](NC(=O)[C@H](Cc1ccc(O)cc1)NC(=O)CNC(=O)[C@H](CC(C)C)NC(=O)[C@H](CCCCN)NC(=O)[C@H](Cc1c[nH]cn1)NC(=O)[C@H](CC(C)C)NC(=O)CNC(=O)[C@H](CCC(=O)O)NC(=O)CNC(=O)[C@H](CCC(=O)O)NC(=O)[C@@H](NC(=O)CNC(=O)[C@H](CO)NC(=O)[C@H](Cc1ccc(O)cc1)NC(=O)[C@H](CO)NC(=O)[C@@H](N)CC(N)=O)C(C)C)C(=O)O` [NS5 501-517], the IC50 in assay [1] turned out to be 7 nM; in [2], 4420 nM; in assay [3], 74 nM; in [4], 4370 nM; in [5], 2400 nM; in [6] it was 18 nM. The IC50 was determined as 836 nM in assay [13]; 8180 nM in assay [8]; 4990 nM in assay [9] (competitive inhibition of radiolabeled standard peptide, DRB1*1302, read-out: Binding Affinity (nM) DRB1*1302); 3050 nM in assay [10]; 2960 nM in assay [11]; 1120 nM in assay [12].
As for `CSCC[C@H](NC(=O)[C@H](CCC(N)=O)NC(=O)[C@H](C)NC(=O)[C@H](Cc1ccc(O)cc1)NC(=O)[C@H](C)NC(=O)[C@H](CCCCN)NC(=O)CNC(=O)[C@H](CC(C)C)NC(=O)[C@H](CS)NC(=O)[C@H](C)NC(=O)[C@@H](NC(=O)[C@H](CCC(=O)O)NC(=O)[C@H](CCCNC(=N)N)NC(=O)[C@H](CC(C)C)NC(=O)[C@@H](N)CO)[C@@H](C)O)C(=O)N[C@@H](Cc1c[nH]c2ccccc12)C(=O)N[C@H](C(=O)O)[C@@H](C)O` [NS5 747-763], the IC50 came to 54 nM in assay [1]; 5740 nM in assay [2]; 111 nM in [4]; 39 nM in [5]; 2980 nM in assay [6]; 551 nM in assay [13]. Moreover, the IC50 stood at 393 nM in assay [7] (competitive inhibition of radiolabeled standard peptide, DRB1*0901, read-out: Binding Affinity (nM) DRB1*0901); 80 nM in [8]; 167 nM in [10]; 8310 nM in assay [11]; 4660 nM in assay [14].
Consider `CC[C@H](C)[C@H](NC(=O)[C@H](C)NC(=O)[C@H](CC(N)=O)NC(=O)[C@H](CO)NC(=O)[C@H](C)NC(=O)[C@H](CC(C)C)NC(=O)[C@H](CCCNC(=N)N)NC(=O)[C@H](CC(C)C)NC(=O)[C@H](CC(=O)O)NC(=O)[C@H](CCCNC(=N)N)NC(=O)[C@H](CCCNC(=N)N)NC(=O)[C@H](Cc1c[nH]cn1)NC(=O)[C@H](Cc1ccccc1)NC(=O)[C@H](Cc1ccc(O)cc1)NC(=O)[C@@H](N)CCSC)C(=O)O` [NS5 765-779], for which the IC50 in assay [1] stood at 41 nM; in [2], 1280 nM; in [3] it was 4.7 nM; in assay [4], 34 nM; in assay [5], 18 nM; in [6] it was 18 nM. The IC50 was 7.8 nM in [13]; 61 nM in assay [7]; 17 nM in assay [8]; 4.9 nM in assay [9]; 118 nM in assay [10]; 726 nM in assay [12].
